# Source: patent US11236122B2, “Triterpene amine derivatives” (DFH THERAPEUTICS, priority 2018, dated 2022)
# Where a name gives a salt, the structure may show the parent alone.
# Legend:
# WT pNL4-3 = assay: CA-SP1 accumulation assay, WT NL4-3; type: cell-based, HIV-1; settings: HeLa or 293T cells; for % CA-SP1 Accumulation 10 nM NL4-3: 10 nM compound; for % CA-SP1 Accumulation 100 nM NL4-3: 100 nM compound
# Description: (§1) Cell culture, plasmids and transfections. The MT-4 T-cell line was maintained in RPMI-1640 medium supplemented with 10% (vol/vol) fetal bovine serum (FBS), 2 mM glutamine, 100 U/mL penicillin and 100 μg/mL streptomycin at 37° C. in a humidified 5% CO2 atmosphere. HeLa and 293T cells were maintained in Dulbecco's modified Eagle's medium (DMEM) supplemented with 5% (vol/vol) FBS, 2 mM glutamine, 100 U/mL penicillin and 100 μg/mL streptomycin. Molecular clones used in this study were WT pNL4-3 and the derivative encoding a Val-to-Ala mutation at SP1 residue 7, referred to as SP1-V7A. The MT-4 T-cell line was transfected the DEAE/dextran procedure; HeLa and 293T cells were transfected with linear polyethylenimine (L-PEI) or Lipofectamine 2000 (Invitrogen) as recommended by the supplier.
# (§2) CA-SP1 accumulation assay. For CA-SP1 accumulation assays, HeLa or 293T cells were transfected with WT pNL4-3 or the SP1-V7A derivative. At 24 h post-transfection, cells were starved in Met/Cys-free medium for 30 min and metabolically labeled with [^35S]Met/Cys-Pro-mix (Amersham) for 2-3 h. Maturation inhibitors were maintained in the cultures throughout the transfection and labeling period. Viruses were collected by ultracentrifugation at 99,000×g for 45-60 min. Virus pellets were resuspended in Triton X-100 lysis buffer [300 mM NaCl, 50 mM Tris-HCl (pH 7.5), 0.5% Triton X-100, 10 mM iodoacetamide, and protease inhibitor cocktail tablets (Roche)]. CA and CA-SP1 proteins were separated on 13.5-15% polyacrylamide gels by SDS-polyacrylamide gel electrophoresis, exposed to a phosphorimager plate (Fuji) and quantified by Quantity One software (Bio-Rad).
# pNL4-3 SP1-V7A = assay: CA-SP1 accumulation assay, SP1-V7A derivative; type: cell-based, HIV-1; settings: HeLa or 293T cells; for % CA-SP1 Accumulation 10 nM SP1 V7A: 10 nM compound; for % CA-SP1 Accumulation 100 nM SP1 V7A: 100 nM compound
# Description: as §1, §2
SMILES,% CA-SP1 Accumulation 10 nM NL4-3 (WT pNL4-3) [%],% CA-SP1 Accumulation 10 nM SP1 V7A (pNL4-3 SP1-V7A),% CA-SP1 Accumulation 100 nM NL4-3 (WT pNL4-3),% CA-SP1 Accumulation 100 nM SP1 V7A (pNL4-3 SP1-V7A)
"C=C(C)[C@@H]1CC[C@]2(CCNCCN3CCN(Cc4ccccn4)CC3)CC[C@]3(C)[C@H](CC[C@@H]4[C@@]5(C)CC[C@H](OC(=O)CC(C)(C)C(=O)O)C(C)(C)[C@@H]5CC[C@]43C)[C@@H]12 [Compound 51u, (3β)-17-[2-[[2-[4-(2-Pyridinylmethyl)piperazin-1-yl]ethyl]amino]ethyl]-28-norlup-20(29)-en-3-ol, 3-(1-Hydrogen 2,2-Dimethylbutanedioate)]",53.8,30.2 (2) %,,
"C=C(C)[C@@H]1CC[C@]2(CCNCCCN3CCN(S(C)(=O)=O)CC3)CC[C@]3(C)[C@H](CC[C@@H]4[C@@]5(C)CC[C@H](OC(=O)CC(C)(C)CC(=O)O)C(C)(C)[C@@H]5CC[C@]43C)[C@@H]12 [Compound 51c, (3β)-17-[2-[[3-[4-(Methylsulfonyl)piperazin-1-yl]propyl]amino]ethyl]-28-norlup-20(29)-en-3-ol, 3-(Hydrogen 3,3-Dimethylpentanedioate)]",,,72.9 (3) %,29.2 (3) %
"C=C(C)[C@@H]1CC[C@]2(CCCNCCN3CCN(S(C)(=O)=O)CC3)CC[C@]3(C)[C@H](CC[C@@H]4[C@@]5(C)CC[C@H](OC(=O)CC(C)(C)C(=O)O)C(C)(C)[C@@H]5CC[C@]43C)[C@@H]12 [Compound 51cc, (3β)-17-[3-[[2-[4-(Methylsulfonyl)piperazin-1-yl]ethyl]amino]propyl]-28-norlup-20(29)-en-3-ol, 3-(1-Hydrogen 2,2-Dimethylbutanedioate) Sesquisulfate]",26.0,12.5%,58.4%,19.3%
"C=C(C)[C@@H]1CC[C@]2(CCCNCCN3CCS(=O)(=O)CC3)CC[C@]3(C)[C@H](CC[C@@H]4[C@@]5(C)CC[C@H](OC(=O)CC(C)(C)C(=O)O)C(C)(C)[C@@H]5CC[C@]43C)[C@@H]12 [Compound 51dd, (3β)-17-[[[3-[2-(1,1-Dioxothiomorpholin-4-yl)]Ethyl]Amino]Propyl]-28-norlup-20(29)-en-3-ol, 3-(1-Hydrogen 2,2-Dimethylbutanedioate) Sulfate]",8.2,5.9%,9.7%,7.3%
"CC(C)(CC(=O)O[C@H]1CC[C@]2(C)[C@H]3CC[C@@H]4[C@H]5[C@H](C6(C)CC6)CC[C@]5(CCNCCN5CCCC5)CC[C@@]4(C)[C@]3(C)CC[C@H]2C1(C)C)C(=O)O [Compound 51h, (3β)-17-[2-[[2-(1-Pyrrolidinyl)ethyl]amino]ethyl]-20,29-methano-28-norlupan-3-ol, 3-(1-Hydrogen 2,2-Dimethylbutanedioate)]",,,70.1%,20.1%
"C=C(C)[C@@H]1CC[C@]2(CCNCCCN3CCN(CCOC)CC3)CC[C@]3(C)[C@H](CC[C@@H]4[C@@]5(C)CC[C@H](OC(=O)CC(C)(C)CC(=O)O)C(C)(C)[C@@H]5CC[C@]43C)[C@@H]12 [Compound 51e, (3β)-17-[2-[[3-[4-(2-Methoxyethyl)piperazin-1-yl]propyl]amino]ethyl]-28-norlup-20(29)-en-3-ol, 3-(Hydrogen 3,3-Dimethylpentanedioate)]",,,70.4 (3) %,23.1 (3) %
"C=C(C)[C@@H]1CC[C@]2(CNCCCN3CCCC3)CC[C@]3(C)[C@H](CC[C@@H]4[C@@]5(C)CC[C@H](OC(=O)CC(C)(C)C(=O)O)C(C)(C)[C@@H]5CC[C@]43C)[C@@H]12 [Compound 51v, (3β)-28-[[3-(1-Pyrrolidinyl)propyl]amino]lup-20(29)-en-3-ol, 3-(1-Hydrogen 2,2-Dimethylbutanedioate) Sulfate]",21.9,10.3%,57.2%,26.9%
"C=C(C)[C@@H]1CC[C@]2(CCNCCN3CCN(c4ccccc4)CC3)CC[C@]3(C)[C@H](CC[C@@H]4[C@@]5(C)CC[C@H](OC(=O)CC(C)(C)C(=O)O)C(C)(C)[C@@H]5CC[C@]43C)[C@@H]12 [Compound 51p, (3β)-17-[2-[[2-(4-Phenylpiperazin-1-yl)ethyl]amino]ethyl]-28-norlup-20(29)-en-3-ol, 3-(1-Hydrogen 2,2-Dimethylbutanedioate)]",60.0,22.5%,,
"C=C(C)[C@@H]1CC[C@]2(CCCNCCN3CCN(Cc4ccccc4)CC3)CC[C@]3(C)[C@H](CC[C@@H]4[C@@]5(C)CC[C@H](OC(=O)CC(C)(C)C(=O)O)C(C)(C)[C@@H]5CC[C@]43C)[C@@H]12 [Compound 51bb, (3β)-17-[3-[[2-[4-(Phenylmethyl)piperazin-1-yl]ethyl]amino]propyl]-28-norlup-20(29)-en-3-ol, 3-(1-Hydrogen 2,2-Dimethylbutanedioate) Sesquisulfate]",5.8,4.8%,8.4%,3.7%
"C=C(C)[C@@H]1CC[C@]2(CCNCCCN3CCN(CCO)CC3)CC[C@]3(C)[C@H](CC[C@@H]4[C@@]5(C)CC[C@H](OC(=O)CC(C)(C)CC(=O)O)C(C)(C)[C@@H]5CC[C@]43C)[C@@H]12 [Compound 51d, (3β)-17-[2-[[3-[4-(2-Hydroxyethyl)piperazin-1-yl]propyl]amino]ethyl]-28-norlup-20(29)-en-3-ol, 3-(Hydrogen 3,3-Dimethylpentanedioate)]",,,71.6 (3) %,20.4 (3) %
"C=C(C)[C@@H]1CC[C@]2(CNCCN3CCN(Cc4ccccc4)CC3)CC[C@]3(C)[C@H](CC[C@@H]4[C@@]5(C)CC[C@H](OC(=O)CC(C)(C)C(=O)O)C(C)(C)[C@@H]5CC[C@]43C)[C@@H]12 [Compound 51w, (3β)-28-[[2-[4-(Phenylmethyl)piperazin-1-yl]ethyl]amino]lup-20(29)-en-3-ol, 3-(1-Hydrogen 2,2-Dimethylbutanedioate) Sesquisulfate]",16.3,9.6%,50.1%,21.6%
CCN1CCC(NCC[C@]23CC[C@@H](C4(C)CC4)[C@@H]2[C@H]2CC[C@@H]4[C@@]5(C)CC[C@H](OC(=O)CC(C)(C)C(=O)O)C(C)(C)[C@@H]5CC[C@@]4(C)[C@]2(C)CC3)CC1 [Compound 51k],,,55.0 (2) %,27.3 (2) %
"C=C(C)[C@@H]1CC[C@]2(CCNCCN3CCN(Cc4ccc(F)cc4)CC3)CC[C@]3(C)[C@H](CC[C@@H]4[C@@]5(C)CC[C@H](OC(=O)CC(C)(C)C(=O)O)C(C)(C)[C@@H]5CC[C@]43C)[C@@H]12 [Compound 51l, (3β)-17-[2-[[2-[4-(4-Fluorophenylmethyl)piperazin-1-yl]ethyl]amino]ethyl]-28-norlup-20(29)-en-3-ol, 3-(1-Hydrogen 2,2-Dimethylbutanedioate)]",48.9,38.2 (3) %,,
